{"source": "patent US10174029B2", "about": "“Pyrimidine-2,4-diamine derivatives for treatment of cancer” (THOMAS HELLEDAYS STIFTELSE FOR MEDICINSK FORSKNING, priority 2012, dated 2019)", "data": [{"target": "MTH1 (Homo sapiens, UniProt P36639)", "experiment": "MTH1 enzymatic assay and IC50 value determination (malachite green)", "assay_type": "biochemical", "conditions": "MTH1 4.8 nM, dGTP 100 μM, 15 minutes at 22° C.; group: between 2 μM and 10 μM", "experimental": "(§1) MTH1 Enzymatic Assay and IC50 Value Determination\n(§2) MTH1 catalyzes the hydrolysis of dGTP to dGMP and PPi. By coupling the reaction to pyrophosphatase added in excess PPi is converted to Pi that can be detected by using the malachite green assay reagent. Briefly, for IC50 value determination the compound to be analyzed is diluted in assay buffer in a 1:3 dilution series generating 12 different compound concentrations giving a final DMSO concentration of 1% in the assay well. MTH1 diluted in assay buffer (100 mM Tris-acetate, 40 mM NaCl, 10 mM magnesium acetate, 1 mM DTT and 0.005% Tween 20) fortified with E. coli pyrophosphatase (0.8 U/ml) is added to a final concentration of 4.8 nM. dGTP diluted in assay buffer is added to a final concentration of 100 μM. The reaction mixture is incubated with shaking for 15 minutes at 22° C. To 100 μl reaction mixture is 25 μl Malachite green assay regent (0.095% Malachite green in 17% H2SO4, 1.5% Ammonium molybdate, 0.17% Tween 20) added followed by incubation with shaking for 15 minutes at 22° C.\n(§3) The absorbance of the assay plate is read at 630 nm using an EnVision Multilabel plate reader. The IC50 value is determined by fitting a dose response curve to the data points using nonlinear regression analysis and the equation Y=Bottom+(Top−Bottom)/(1+10^((Log IC50−X)*HillSlope)), where Y is the read absorbance at 630 nm and X is log [compound].", "units": {"IC50": "nM"}, "values": [{"smiles": "Cc1cccc(-c2cc(NC3CCCCC3NC(=O)OC(C)(C)C)nc(N)n2)c1C", "note": "(mixture of isomers) [Example 372, tert-Butyl N-(2-{[2-amino-6-(2,3-dimethylphenyl)pyrimidin-4-yl]amino}cyclohexyl)-carbamate]", "IC50": "2000 to 10000"}, {"smiles": "CCCNc1cc(-c2ccc(S(C)(=O)=O)cc2)nc(N)n1", "note": "[Example 5, 6-(4-methanesulfonylphenyl)-4-N-propylpyrimidine-2,4-diamine]", "IC50": "2000 to 10000"}, {"smiles": "Nc1nc(NCCN2CCOCC2)cc(-c2ccccc2)n1", "note": "[Example 12, 4-N-[2-(morpholin-4-yl)ethyl]-6-phenylpyrimidine-2,4-diamine]", "IC50": "2000 to 10000"}, {"smiles": "CC(C)(C)Nc1cc(-c2ccc(Cl)cc2)nc(N)n1", "note": "[Example 14, 4-N-tert-butyl-6-(4-chlorophenyl)pyrimidine-2,4-diamine]", "IC50": "2000 to 10000"}, {"smiles": "Nc1nc(NC2CCOCC2)cc(-c2ccc(Cl)cc2)n1", "note": "[Example 15, 6-(4-chlorophenyl)-4-N-(oxan-4-yl)pyrimidine-2,4-diamine]", "IC50": "2000 to 10000"}, {"smiles": "CC(C)(C)Nc1cc(-c2cccc(C(F)(F)F)c2)nc(N)n1", "note": "[Example 20, 4-N-tert-butyl-6-[3-(trifluoromethyl)phenyl]pyrimidine-2,4-diamine]", "IC50": "2000 to 10000"}, {"smiles": "Nc1nc(NC2CCOCC2)cc(-c2cccc(Cl)c2)n1", "note": "[Example 21, 6-(3-chlorophenyl)-4-N-(oxan-4-yl)pyrimidine-2,4-diamine]", "IC50": "2000 to 10000"}, {"smiles": "CNc1cc(-c2ccccn2)nc(N)n1", "note": "[Example 78, 4-N-methyl-6-(pyridin-2-yl)pyrimidine-2,4-diamine]", "IC50": "2000 to 10000"}]}, {"target": "MTH1 (Homo sapiens, UniProt P36639)", "experiment": "MTH1 enzymatic assay and IC50 value determination (malachite green)", "assay_type": "biochemical", "conditions": "MTH1 4.8 nM, dGTP 100 μM, 15 minutes at 22° C.; group: less than 200 nM", "experimental": "as §1, §2, §3", "units": {"IC50": "nM"}, "values": [{"smiles": "CCCNc1cc(-c2ccccc2)nc(N)n1", "note": "[Example 4, 6-phenyl-4-N-propylpyrimidine-2,4-diamine]", "IC50": "< 200"}, {"smiles": "Nc1nc(NCC2CC2)cc(-c2ccccc2)n1", "note": "[Example 6, 4-N-(cyclopropylmethyl)-6-phenylpyrimidine-2,4-diamine]", "IC50": "< 200"}, {"smiles": "Nc1nc(NCc2ccccc2)cc(-c2ccccc2)n1", "note": "[Example 11, 4-N-benzyl-6-phenylpyrimidine-2,4-diamine]", "IC50": "< 200"}, {"smiles": "COc1ccc(-c2cc(NC3CC3)nc(N)n2)cc1", "note": "[Example 18, 4-N-cyclopropyl-6-(4-methoxyphenyl)pyrimidine-2,4-diamine]", "IC50": "< 200"}, {"smiles": "CNc1cc(-c2ccc3c(ccn3S(=O)(=O)c3ccccc3)c2)nc(N)n1", "note": "[Example 31, 6-[1-(benzenesulfonyl)-1H-indol-5-yl]-4-N-methylpyrimidine-2,4-diamine]", "IC50": "< 200"}, {"smiles": "CNc1cc(-c2ccccc2OC)nc(N)n1", "note": "[Example 32, 6-(2-methoxyphenyl)-4-N-methylpyrimidine-2,4-diamine]", "IC50": "< 200"}, {"smiles": "CNc1cc(-c2cncc3ccccc23)nc(N)n1", "note": "[Example 35, 6-(isoquinolin-4-yl)-4-N-methylpyrimidine-2,4-diamine]", "IC50": "< 200"}, {"smiles": "CNc1cc(-c2ccc(C(F)(F)F)cc2)nc(N)n1", "note": "[Example 36, 4-N-methyl-6-[4-(trifluoromethyl)phenyl]pyrimidine-2,4-diamine]", "IC50": "< 200"}, {"smiles": "CNc1cc(-c2cccc(C#N)c2)nc(N)n1", "note": "[Example 40, 3-[2-amino-6-(methylamino)pyrimidin-4-yl]benzonitrile]", "IC50": "< 200"}, {"smiles": "CNc1cc(-c2ccc(S(C)(=O)=O)cc2)nc(N)n1", "note": "[Example 43, 6-(4-methanesulfonylphenyl)-4-N-methylpyrimidine-2,4-diamine]", "IC50": "< 200"}, {"smiles": "CNc1cc(-c2cccc(C(=O)N3CCOCC3)c2)nc(N)n1", "note": "[Example 44, 4-N-methyl-6-[3-(morpholine-4-carbonyl)phenyl]pyrimidine-2,4-diamine]", "IC50": "< 200"}, {"smiles": "CNc1cc(-c2ccc(NS(C)(=O)=O)cc2)nc(N)n1", "note": "[Example 46, N-{4-[2-amino-6-(methylamino)pyrimidin-4-yl]phenyl}methanesulfonamide]", "IC50": "< 200"}, {"smiles": "CNc1cc(-c2ccc(C#N)cc2)nc(N)n1", "note": "[Example 51, 4-[2-amino-6-(methylamino)pyrimidin-4-yl]benzonitrile]", "IC50": "< 200"}, {"smiles": "CNc1cc(-c2cccc3ncccc23)nc(N)n1", "note": "[Example 52, 4-N-methyl-6-(quinolin-5-yl)pyrimidine-2,4-diamine]", "IC50": "< 200"}, {"smiles": "Nc1nc(NC2CCCC2)cc(-c2ccc(Cl)cc2)n1", "note": "[Example 55, 6-(4-chlorophenyl)-4-N-cyclopentylpyrimidine-2,4-diamine]", "IC50": "< 200"}, {"smiles": "COc1ccc(-c2cc(NC3CCCC3)nc(N)n2)cc1", "note": "[Example 56, 4-N-cyclopentyl-6-(4-methoxyphenyl)pyrimidine-2,4-diamine]", "IC50": "< 200"}, {"smiles": "Nc1nc(NC2CCCC2)cc(-c2cccc(C(F)(F)F)c2)n1", "note": "[Example 57, 4-N-cyclopentyl-6-[3-(trifluoromethyl)phenyl]pyrimidine-2,4-diamine]", "IC50": "< 200"}, {"smiles": "COc1ccc(-c2cc(NC3CCC3)nc(N)n2)cc1", "note": "[Example 59, 4-N-cyclobutyl-6-(4-methoxyphenyl)pyrimidine-2,4-diamine]", "IC50": "< 200"}, {"smiles": "Nc1nc(NC2CCC2)cc(-c2cccc(Cl)c2Cl)n1", "note": "[Example 64, 4-N-cyclobutyl-6-(2,3-dichlorophenyl)pyrimidine-2,4-diamine]", "IC50": "< 200"}, {"smiles": "Nc1nc(NC2CCCC2)cc(-c2cccc(Cl)c2Cl)n1", "note": "[Example 65, 4-N-cyclopentyl-6-(2,3-dichlorophenyl)pyrimidine-2,4-diamine]", "IC50": "< 200"}, {"smiles": "CCNc1cc(-c2cccc(Cl)c2Cl)nc(N)n1", "note": "[Example 66, 6-(2,3-dichlorophenyl)-4-N-ethylpyrimidine-2,4-diamine]", "IC50": "< 200"}, {"smiles": "Nc1nc(NC2CCOC2)cc(-c2cccc(Cl)c2Cl)n1", "note": "(stereo not shown) [Example 67, 6-(2,3-dichlorophenyl)-4-N-(oxolan-3-yl)pyrimidine-2,4-diamine]", "IC50": "< 200"}, {"smiles": "CNc1cc(-c2cc(F)c(F)cc2F)nc(N)n1", "note": "[Example 72, 4-N-methyl-6-(2,4,5-trifluorophenyl)pyrimidine-2,4-diamine]", "IC50": "< 200"}, {"smiles": "CNc1cc(-c2ccc(F)cc2OC)nc(N)n1", "note": "[Example 73, 6-(4-fluoro-2-methoxyphenyl)-4-N-methylpyrimidine-2,4-diamine]", "IC50": "< 200"}, {"smiles": "CNc1cc(-c2cc(Cl)ccc2C)nc(N)n1", "note": "[Example 74, 6-(5-chloro-2-methylphenyl)-4-N-methylpyrimidine-2,4-diamine]", "IC50": "< 200"}, {"smiles": "CNc1cc(-c2ccccc2Cl)nc(N)n1", "note": "[Example 77, 6-(2-chlorophenyl)-4-N-methylpyrimidine-2,4-diamine]", "IC50": "< 200"}, {"smiles": "CNc1cc(-c2ccc(OC)c(C)c2)nc(N)n1", "note": "[Example 79, 6-(4-methoxy-3-methylphenyl)-4-N-methylpyrimidine-2,4-diamine]", "IC50": "< 200"}, {"smiles": "CNc1cc(-c2ccc(F)c(Cl)c2)nc(N)n1", "note": "[Example 80, 6-(3-chloro-4-fluorophenyl)-4-N-methylpyrimidine-2,4-diamine]", "IC50": "< 200"}, {"smiles": "CNc1cc(-c2ccc(OC(F)(F)F)cc2)nc(N)n1", "note": "[Example 81, 4-N-methyl-6-[4-(trifluoromethoxy)phenyl]pyrimidine-2,4-diamine]", "IC50": "< 200"}, {"smiles": "CNc1cc(-c2cccc(C(F)(F)F)c2F)nc(N)n1", "note": "[Example 85, 6-[2-fluoro-3-(trifluoromethyl)phenyl]-4-N-methylpyrimidine-2,4-diamine]", "IC50": "< 200"}, {"smiles": "CNc1cc(-c2cccc(Cl)c2F)nc(N)n1", "note": "[Example 87, 6-(3-chloro-2-fluorophenyl)-4-N-methylpyrimidine-2,4-diamine]", "IC50": "< 200"}, {"smiles": "CNc1cc(-c2ccccc2C(F)(F)F)nc(N)n1", "note": "[Example 89, 4-N-methyl-6-[2-(trifluoromethyl)phenyl]pyrimidine-2,4-diamine]", "IC50": "< 200"}, {"smiles": "CNc1cc(-c2cccc3c2cnn3C)nc(N)n1", "note": "[Example 90, 4-N-methyl-6-(1-methyl-1H-indazol-4-yl)pyrimidine-2,4-diamine]", "IC50": "< 200"}, {"smiles": "CNc1cc(-c2cccc(F)c2F)nc(N)n1", "note": "[Example 93, 6-(2,3-difluorophenyl)-4-N-methylpyrimidine-2,4-diamine]", "IC50": "< 200"}, {"smiles": "CNc1cc(-c2cc(Cl)c3c(c2)OCO3)nc(N)n1", "note": "[Example 97, 6-(7-chloro-2H-1,3-benzodioxol-5-yl)-4-N-methylpyrimidine-2,4-diamine]", "IC50": "< 200"}, {"smiles": "CNc1cc(-c2ccc(OC)c(Cl)c2Cl)nc(N)n1", "note": "[Example 98, 6-(2,3-dichloro-4-methoxyphenyl)-4-N-methylpyrimidine-2,4-diamine]", "IC50": "< 200"}, {"smiles": "CNc1cc(-c2cccc(CO)c2)nc(N)n1", "note": "[Example 101, {3-[2-amino-6-(methylamino)pyrimidin-4-yl]phenyl}methanol]", "IC50": "< 200"}, {"smiles": "CNc1cc(-c2ccc(C(=O)OC)cc2)nc(N)n1", "note": "[Example 103, methyl 4-[2-amino-6-(methylamino)pyrimidin-4-yl]benzoate]", "IC50": "< 200"}, {"smiles": "CNc1cc(-c2ccc(O)c(Cl)c2Cl)nc(N)n1", "note": "[Example 105, 4-[2-amino-6-(methylamino)pyrimidin-4-yl]-2,3-dichlorophenol]", "IC50": "< 200"}, {"smiles": "CNc1cc(-c2ccc(C=O)cc2)nc(N)n1", "note": "[Example 108, 4-[2-amino-6-(methylamino)pyrimidin-4-yl]benzaldehyde]", "IC50": "< 200"}, {"smiles": "CNC(=O)c1ccc(-c2cc(NC)nc(N)n2)cc1", "note": "[Example 110, 4-[2-amino-6-(methylamino)pyrimidin-4-yl]-N-methylbenzamide]", "IC50": "< 200"}]}]}
